Assay results published in the supplement of paper PMC8882468.

Experiments:
Experiment in all cases: CTG-3D luminescence at 96 h relative to day-0 seeding control (ratio to day 0); higher = more growth / less cytotoxicity; PDxO 3D drug screen, 96 h, CTG-3D normalised to day-0 seeding control.
HCI-027 = tested on: HCI-027 (organoid from a triple-negative breast cancer xenograft)
HCI-023 = tested on: HCI-023 (organoid from a triple-negative breast cancer xenograft)
MDA-MB-231 = tested on: MDA-MB-231
HCI-010 = tested on: HCI-010 (organoid from a breast cancer xenograft)
HCI-015 = tested on: HCI-015 (organoid from a triple-negative breast cancer xenograft)
HCI-008 = tested on: HCI-008 (organoid from a HER2-enriched breast cancer xenograft)
HCI-017.E2 = tested on: HCI-017.E2 (organoid from an ER-positive breast cancer xenograft)

CS(=O)(=O)c1ccc(C(=O)Nc2ccc(Cl)c(-c3ccccn3)c2)c(Cl)c1 [vismodegib]
CTG-3D luminescence at 96 h
Conditions | 12.5 pM | 0.00025 µM | 0.005 µM | 0.1 µM | 1 µM | 10 µM | 100 µM | 625 fM
HCI-008, days in culture: 228 | 1.56 | 1.74 | 1.17 | 1.72 | 1.46 | 1.46 | 0.622 | 1.79
HCI-008, days in culture: 244 | 1.7 | 2.21 | 1.95 | 2.27 | 2.19 | 2.07 | 1.01 | 2.24
HCI-010, days in culture: 52 | 1.83 | 1.98 | 2.08 | 2.26 | 2.4 | 2.15 | 0.825 | 1.78
HCI-010, days in culture: 65 | 1.54 | 1.74 | 1.56 | 1.6 | 1.71 | 1.5 | 0.574 | 1.59
HCI-010, days in culture: 103 | 2.84 | 3.06 | 3 | 3.14 | 2.91 | 2.62 | 1.52 | 2.8
HCI-015, days in culture: 172 | 2.23 | 2 | 1.97 | 1.34 | 1.97 | 1.25 | 0.214 | 3.01
HCI-015, days in culture: 191 | 2.65 | 1.16 | 1.77 | 1.1 | 1.7 | 1.15 | 0.207 | 1.54
HCI-015, days in culture: 218 | 1.6 | 1.48 | 1.63 | 1.61 | 1.73 | 1.61 | -0.148 | 2
HCI-017.E2, days in culture: 85 | 2.49 | 2.32 | 2.96 | 2.5 | 2.32 | 1.76 | 0.842 | 2.14
HCI-023, days in culture: 111 | 1.92 | 1.62 | 1.41 | 1.48 | 1.15 | 1.34 | 0.248 | 1.6
HCI-023, days in culture: 128 | 1.29 | 1.4 | 1.39 | 1.46 | 1.31 | 1.86 | 0.552 | 1.67
HCI-027, days in culture: 176 | 2.64 | 1.85 | 2.83 | 2.12 | 2.22 | 1.1 | -0.204 | 2.79
HCI-027, days in culture: 194 | 2.59 | 1.87 | 2.35 | 2.35 | 2.6 | 2.12 | -0.0508 | 2.34
HCI-027, days in culture: 201 | 3.03 | 3.03 | 3.44 | 2.6 | 3.36 | 1.74 | 0.019 | 3.54

CTG-3D luminescence at 96 h
Conditions | 12.5 pM | 0.00025 µM | 0.005 µM | 0.1 µM | 1 µM | 10 µM | 100 µM | 625 fM
HCI-017.E2 | 1.53 | 1.93 | 2.01 | 1.8 | 1.65 | 1.67 | 0.824 | 1.88
MDA-MB-231 | 4.58 | 4.44 | 4.54 | 4.53 | 4.66 | 4.73 | 4 | 4.62

CNC(=O)c1cccc(-c2ccc3c(N4CCOC[C@@H]4C)nc(N4CCOC[C@@H]4C)nc3n2)c1 [vistusertib]
CTG-3D luminescence at 96 h
Conditions | 12.5 pM | 0.00025 µM | 0.005 µM | 0.1 µM | 1 µM | 10 µM | 100 µM | 625 fM
HCI-008, days in culture: 228 | 1.54 | 1.64 | 1.41 | 0.913 | 0.71 | 0.548 | 0.289 | 1.66
HCI-008, days in culture: 244 | 1.33 | 1.73 | 2.19 | 1.74 | 1.08 | 0.812 | 0.329 | 2.1
HCI-010, days in culture: 52 | 2.1 | 2.32 | 2.14 | 1.57 | 0.904 | 0.76 | 0.17 | 2.19
HCI-010, days in culture: 65 | 1.67 | 1.73 | 1.69 | 1.14 | 0.708 | 0.543 | 0.0432 | 1.68
HCI-010, days in culture: 103 | 3.33 | 3.37 | 3.25 | 1.95 | 1.51 | 1.24 | 0.419 | 3.04
HCI-015, days in culture: 172 | 2.36 | 1.61 | 2.07 | 0.997 | 0.995 | 0.545 | 0.36 | 2.7
HCI-015, days in culture: 191 | 1.84 | 1.24 | 1.54 | 0.827 | 0.859 | 0.436 | 0.329 | 1.43
HCI-015, days in culture: 218 | 2.16 | 1.84 | 2.09 | 1.41 | 0.874 | 0.543 | 0.305 | 2.18
HCI-017.E2, days in culture: 85 | 3.03 | 2.04 | 2.83 | 1.99 | 0.732 | 0.76 | 0.421 | 2.95
HCI-023, days in culture: 111 | 1.41 | 1.27 | 1.29 | 1.09 | 0.468 | 0.406 | 0.242 | 1.5
HCI-023, days in culture: 128 | 1.83 | 1.59 | 1.44 | 1.27 | 0.78 | 0.864 | 0.541 | 1.7
HCI-027, days in culture: 176 | 2.07 | 1.54 | 3.05 | 1.73 | 0.81 | 0.32 | 0.123 | 2.96
HCI-027, days in culture: 194 | 1.93 | 1.49 | 1.77 | 1.58 | 1.03 | 0.803 | 0.226 | 1.84
HCI-027, days in culture: 201 | 1.74 | 2.52 | 2.47 | 2.11 | 1.06 | 0.501 | 0.169 | 2.26

CTG-3D luminescence at 96 h
Conditions | 12.5 pM | 0.00025 µM | 0.005 µM | 0.1 µM | 1 µM | 10 µM | 100 µM | 625 fM
HCI-017.E2 | 1.6 | 2.166 | 1.94 | 1.38 | 0.698 | 0.585 | 0.418 | 2.18
MDA-MB-231 | 4.58 | 4.53 | 4.66 | 4.35 | 3.31 | 2.7 | 1.9 | 4.64
